Like-named read-outs stand apart in the source and are kept apart here.
Key:
Bromus inermis (BROIN) = assay: greenhouse pre-emergence herbicidal activity; type: in vivo; conditions: read-out: observed % activity; for inhibition at 47 g/ha: metazachlor 47 g ai/ha; for inhibition at 12.5 g/ha: pyroxasulfone 12.5 g ai/ha; for inhibition at 25 g/ha: pyroxasulfone 25 g ai/ha
Description: (§1) For the pre-emergence treatment, directly after sowing the active compounds, which had been suspended or emulsified in water, were applied by means of finely distributed nozzles. The containers were irrigated gently to promote germination and growth and subsequently covered with transparent plastic hoods until plant had rooted. This cover caused uniform germination of the tests plants, unless this was adversely affected by active compounds.
(§2) The respective herbicides A and/or safener were formulated as 10% by weight strength emulsion concentrate and introduced to the spray liquor with the amount of solvent system used for applying the active compound. In the examples, the solvent used was water. Herbicide B and/or safener were used as commercially available formulations and introduced to the spray liquor with the amount of solvent system used for applying the active compound. In the examples, the solvent used was water.
(§3) Metazachlor was used as a commercial aqueous suspension concentrate having an active ingredient concentration of 500 g/l.
(§4) The test period extended over 21 days. During this time, the plants were tended, and their response to the treatments with active compound was evaluated.
(§5) The evaluation for the damage caused by the chemical compositions was carried out using a scale from 0 to 100%, compared to the untreated control plants. Here, 0 means no damage and 100 means complete destruction of the plants.
(§6) The value E, which is to be expected if the activity of the individual compounds is just additive, was calculated using the method of S. R. Colby (1967) “Calculating synergistic and antagonistic responses of herbicide combinations”, Weeds 15, p. 22 ff.
(§7) where X=effect in percent using herbicide A at an application rate a; • Y=effect in percent using herbicide B at an application rate b; • E=expected effect (in %) of A+B at application rates a+b.
(§8) If the value observed in this manner is higher than the value E calculated according to Colby, a synergistic effect is present.

[1] = tested on: Capsella bursa-pastoris (CAPBP); assay: greenhouse pre-emergence herbicidal activity; type: in vivo; conditions: read-out: observed % activity; for inhibition at 47 g/ha: metazachlor 47 g ai/ha; for inhibition at 94 g/ha: metazachlor 94 g ai/ha; for inhibition at 6.25 g/ha: pyroxasulfone 6.25 g ai/ha; for inhibition at 25 g/ha: pyroxasulfone 25 g ai/ha; for inhibition at 50 g/ha: pyroxasulfone 50 g ai/ha
Description: as §1, §2, §3, §4, §5, §6, §7, §8

Galium aparine (GALAP) = assay: greenhouse pre-emergence herbicidal activity; type: in vivo; conditions: read-out: observed % activity; for inhibition at 47 g/ha: metazachlor 47 g ai/ha; for inhibition at 50 g/ha: pyroxasulfone 50 g ai/ha
Description: as §1, §2, §3, §4, §5, §6, §7, §8

[2] = tested on: Matricaria inermis (MATIN); assay: greenhouse pre-emergence herbicidal activity; type: in vivo; conditions: read-out: observed % activity; for inhibition at 47 g/ha: metazachlor 47 g ai/ha; for inhibition at 6.25 g/ha: pyroxasulfone 6.25 g ai/ha; for inhibition at 25 g/ha: pyroxasulfone 25 g ai/ha
Description: as §1, §2, §3, §4, §5, §6, §7, §8

Thlaspi arvense (THLAR) = assay: greenhouse pre-emergence herbicidal activity; type: in vivo; conditions: read-out: observed % activity; for inhibition at 47 g/ha: metazachlor 47 g ai/ha; for inhibition at 94 g/ha: metazachlor 94 g ai/ha; for inhibition at 187 g/ha: metazachlor 187 g ai/ha; for inhibition at 6.25 g/ha: pyroxasulfone 6.25 g ai/ha; for inhibition at 12.5 g/ha: pyroxasulfone 12.5 g ai/ha; for inhibition at 25 g/ha: pyroxasulfone 25 g ai/ha; for inhibition at 50 g/ha: pyroxasulfone 50 g ai/ha
Description: as §1, §2, §3, §4, §5, §6, §7, §8

[3] = tested on: Capsella bursa-pastoris (CAPBP); assay: greenhouse post-emergence herbicidal activity; type: in vivo; conditions: 20 DAT
Description: (§9) For the post-emergence treatment, the test plants were first grown to a height of 3 to 20 cm, depending on the plant habit, and only then treated. Here, the herbicidal compositions were suspended or emulsified in water as distribution medium and sprayed using finely distributing nozzles.
as §2, §3, §4, §5, §6, §7, §8

[4] = tested on: Matricaria inermis (MATIN); assay: greenhouse post-emergence herbicidal activity; type: in vivo; conditions: 20 DAT
Description: as §9, §2, §3, §4, §5, §6, §7, §8

Veronica persica (VERPE) = assay: greenhouse post-emergence herbicidal activity; type: in vivo; conditions: 20 DAT
Description: as §9, §2, §3, §4, §5, §6, §7, §8

Viola arvensis (VIOAR) = assay: greenhouse post-emergence herbicidal activity; type: in vivo; conditions: for inhibition at 94 g/ha / inhibition at 25 g/ha / inhibition at 100 g/ha: Viola arvensis, read-out: observed % activity; for observed activity in % destruction 20 days after treatment: 20 DAT (Table 3)
Description: as §9, §2, §3, §4, §5, §6, §7, §8

[5] = known from Y. Yamaji et al., 2006; cited from earlier work

Which inhibition at 47 g/ha (Bromus inermis (BROIN); 192 h, 8 DAT) does the source give for `Cc1cccc(C)c1N(Cn1cccn1)C(=O)CCl` [metazachlor] here?
The inhibition at 47 g/ha was 35%.

And the inhibition at 47 g/ha (Bromus inermis (BROIN); 480 h, 20 DAT)?
The inhibition at 47 g/ha was 30%.

And the inhibition at 47 g/ha ([1]; 192 h, 8 DAT)?
The inhibition at 47 g/ha was 40%.

And the inhibition at 94 g/ha ([1]; 192 h, 8 DAT)?
Its inhibition at 94 g/ha is 40%.

And the inhibition at 47 g/ha ([1]; 480 h, 20 DAT)?
The inhibition at 47 g/ha was 70%.

And the inhibition at 94 g/ha ([1]; 480 h, 20 DAT)?
Its inhibition at 94 g/ha is 80%.

And the inhibition at 47 g/ha (Galium aparine (GALAP); 192 h, 8 DAT)?
The inhibition at 47 g/ha was 30%.

What about the inhibition at 47 g/ha (Galium aparine (GALAP); 480 h, 20 DAT) of the same molecule?
The inhibition at 47 g/ha was 35%.

And the inhibition at 47 g/ha ([2]; 192 h, 8 DAT)?
The inhibition at 47 g/ha was 20%.

What about the inhibition at 47 g/ha ([2]; 480 h, 20 DAT) of the same molecule?
The inhibition at 47 g/ha was 35%.

And the inhibition at 47 g/ha (Thlaspi arvense (THLAR); 192 h, 8 DAT)?
Its inhibition at 47 g/ha is 20%.

What about the inhibition at 94 g/ha (Thlaspi arvense (THLAR); 192 h, 8 DAT) of the same molecule?
The inhibition at 94 g/ha was 30%.

What about the inhibition at 187 g/ha (Thlaspi arvense (THLAR); 192 h, 8 DAT) of the same molecule?
The inhibition at 187 g/ha was 45%.

And the inhibition at 47 g/ha (Thlaspi arvense (THLAR); 480 h, 20 DAT)?
Its inhibition at 47 g/ha is 0%.

What about the inhibition at 94 g/ha (Thlaspi arvense (THLAR); 480 h, 20 DAT) of the same molecule?
The inhibition at 94 g/ha was 0%.

And the inhibition at 187 g/ha (Thlaspi arvense (THLAR); 480 h, 20 DAT)?
The inhibition at 187 g/ha was 30%.

And the “observed activity in % destruction 20 days after treatment” value ([3]; metazachlor 94 g ai/ha)?
The value was 45%.

What about the “observed activity in % destruction 20 days after treatment” value ([4]; metazachlor 187 g ai/ha) of the same molecule?
The value was 60%.

And the “observed activity in % destruction 20 days after treatment” value ([4]; metazachlor 750 g ai/ha)?
The value was 80%.

And the “observed activity in % destruction 20 days after treatment” value (Veronica persica (VERPE); metazachlor 94 g ai/ha)?
The value was 60%.

And the “observed activity in % destruction 20 days after treatment” value (Veronica persica (VERPE); metazachlor 187 g ai/ha)?
Its value is 80%.

And the inhibition at 94 g/ha (Viola arvensis (VIOAR); 168 h, metazachlor 94 g ai/ha, 7 DAT)?
The inhibition at 94 g/ha was 30%.

And the inhibition at 94 g/ha (Viola arvensis (VIOAR); 480 h, metazachlor 94 g ai/ha, 20 DAT)?
Its inhibition at 94 g/ha is 0%.

What about the “observed activity in % destruction 20 days after treatment” value (Viola arvensis (VIOAR); metazachlor 94 g ai/ha) of the same molecule?
The value was 0%.

Which results are given for `Cn1nc(C(F)(F)F)c(CS(=O)(=O)C2=NOC(C)(C)C2)c1OC(F)F` [pyroxasulfone, 3-[5-(difluoromethoxy)-1-methyl-3-(trifluoromethyl)pyrazol-4-ylmethylsulfonyl]-4,5-dihydro-5,5-dimethyl-1,2-oxazole]?
inhibition at 12.5 g/ha (Bromus inermis (BROIN); 192 h, 8 DAT): 50%; inhibition at 25 g/ha (Bromus inermis (BROIN); 192 h, 8 DAT): 50%; inhibition at 12.5 g/ha (Bromus inermis (BROIN); 480 h, 20 DAT): 50%; inhibition at 25 g/ha (Bromus inermis (BROIN); 480 h, 20 DAT): 60%; inhibition at 6.25 g/ha ([1]; 192 h, 8 DAT): 40%; inhibition at 25 g/ha ([1]; 192 h, 8 DAT): 60%; inhibition at 50 g/ha ([1]; 192 h, 8 DAT): 60%; inhibition at 6.25 g/ha ([1]; 480 h, 20 DAT): 40%; inhibition at 25 g/ha ([1]; 480 h, 20 DAT): 95%; inhibition at 50 g/ha ([1]; 480 h, 20 DAT): 95%; inhibition at 50 g/ha (Galium aparine (GALAP); 192 h, 8 DAT): 60%; inhibition at 50 g/ha (Galium aparine (GALAP); 480 h, 20 DAT): 80%; inhibition at 6.25 g/ha ([2]; 192 h, 8 DAT): 0%; inhibition at 25 g/ha ([2]; 192 h, 8 DAT): 20%; inhibition at 6.25 g/ha ([2]; 480 h, 20 DAT): 20%; inhibition at 25 g/ha ([2]; 480 h, 20 DAT): 50%; inhibition at 6.25 g/ha (Thlaspi arvense (THLAR); 192 h, 8 DAT): 30%; inhibition at 12.5 g/ha (Thlaspi arvense (THLAR); 192 h, 8 DAT): 40%; inhibition at 25 g/ha (Thlaspi arvense (THLAR); 192 h, 8 DAT): 60%; inhibition at 50 g/ha (Thlaspi arvense (THLAR); 192 h, 8 DAT): 60%; inhibition at 6.25 g/ha (Thlaspi arvense (THLAR); 480 h, 20 DAT): 20%; inhibition at 12.5 g/ha (Thlaspi arvense (THLAR); 480 h, 20 DAT): 30%; inhibition at 25 g/ha (Thlaspi arvense (THLAR); 480 h, 20 DAT): 80%; inhibition at 50 g/ha (Thlaspi arvense (THLAR); 480 h, 20 DAT): 80%; observed activity in % destruction 20 days after treatment ([3]; pyroxasulfone 25 g ai/ha): 35%; observed activity in % destruction 20 days after treatment ([4]; pyroxasulfone 25 g ai/ha): 0%; observed activity in % destruction 20 days after treatment ([4]; pyroxasulfone 50 g ai/ha): 0%; observed activity in % destruction 20 days after treatment ([4]; pyroxasulfone 100 g ai/ha): 20%; observed activity in % destruction 20 days after treatment (Veronica persica (VERPE); pyroxasulfone 100 g ai/ha): 90%; inhibition at 25 g/ha (Viola arvensis (VIOAR); 168 h, pyroxasulfone 25 g ai/ha, 7 DAT): 0%; inhibition at 100 g/ha (Viola arvensis (VIOAR); 168 h, pyroxasulfone 100 g ai/ha, 7 DAT): 50%; inhibition at 25 g/ha (Viola arvensis (VIOAR); 480 h, pyroxasulfone 25 g ai/ha, 20 DAT): 0%; inhibition at 100 g/ha (Viola arvensis (VIOAR); 480 h, pyroxasulfone 100 g ai/ha, 20 DAT): 65%; observed activity in % destruction 20 days after treatment (Viola arvensis (VIOAR); pyroxasulfone 25 g ai/ha): 0%; observed activity in % destruction 20 days after treatment (Viola arvensis (VIOAR); pyroxasulfone 100 g ai/ha): 65%; post-emergence activity [5]: poor

Reference: patent US20110015069A1, “Herbicidal Compositions Comprising Pyroxasulfone IV” (BASF SE, priority 2008, published 2011)
